Experimental data from ChEMBL document CHEMBL1138068 (J Med Chem, 2006).
pIC50, pKi: −log10 of the molar value.

Key:
[1] = molecular target: Neuronal acetylcholine receptor subunit alpha-7 (Rattus norvegicus, UniProt Q05941); test: Displacement of [125I]alpha-BTX from alpha-7 nAChR in rat hippocampus membrane; type: cell membranes
[2] = molecular target: Cytochrome P450 2D6 (Homo sapiens, UniProt P10635); test: Inhibition of CYP2D6; type: ADME
[3] = molecular target: Neuronal acetylcholine receptor subunit alpha-7 (Homo sapiens) (UniProt P36544); test: Activity at alpha-7 nAChR assessed as stimulation of relative inward current in cultured hippocampal neurons relative to choline; type: functional, tissue-based; settings: Hippocampus, filed as agonist
Sequence of Neuronal acetylcholine receptor subunit alpha-7 (Homo sapiens) (P36544 whole entry): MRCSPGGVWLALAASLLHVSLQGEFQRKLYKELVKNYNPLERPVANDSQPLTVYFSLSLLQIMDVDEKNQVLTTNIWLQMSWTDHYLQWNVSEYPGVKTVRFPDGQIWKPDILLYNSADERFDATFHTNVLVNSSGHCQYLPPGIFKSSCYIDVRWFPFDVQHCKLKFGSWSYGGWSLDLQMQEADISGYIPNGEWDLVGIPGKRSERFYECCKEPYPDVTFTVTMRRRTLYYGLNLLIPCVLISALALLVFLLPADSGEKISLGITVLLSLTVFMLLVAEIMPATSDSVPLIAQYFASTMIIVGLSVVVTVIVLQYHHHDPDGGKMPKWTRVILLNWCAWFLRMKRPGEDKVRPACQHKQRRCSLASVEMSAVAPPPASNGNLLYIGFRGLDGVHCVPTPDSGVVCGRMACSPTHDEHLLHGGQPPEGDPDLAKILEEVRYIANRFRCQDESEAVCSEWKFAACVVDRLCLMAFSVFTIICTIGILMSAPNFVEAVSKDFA

Sequence of Neuronal acetylcholine receptor subunit alpha-7 (Q05941 whole entry): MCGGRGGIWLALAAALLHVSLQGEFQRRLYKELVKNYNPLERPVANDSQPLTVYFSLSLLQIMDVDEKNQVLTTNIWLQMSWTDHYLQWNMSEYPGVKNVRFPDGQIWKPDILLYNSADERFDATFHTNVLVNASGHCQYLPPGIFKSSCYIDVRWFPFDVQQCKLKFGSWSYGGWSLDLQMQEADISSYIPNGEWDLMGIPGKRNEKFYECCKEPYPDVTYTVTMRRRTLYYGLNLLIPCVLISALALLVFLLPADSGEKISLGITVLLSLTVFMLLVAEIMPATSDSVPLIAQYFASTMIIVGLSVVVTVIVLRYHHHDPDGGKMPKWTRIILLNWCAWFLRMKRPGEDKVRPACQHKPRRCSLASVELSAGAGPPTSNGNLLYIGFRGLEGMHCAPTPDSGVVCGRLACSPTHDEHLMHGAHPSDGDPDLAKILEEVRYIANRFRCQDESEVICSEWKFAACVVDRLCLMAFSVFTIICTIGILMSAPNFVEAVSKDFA
Sequence of Cytochrome P450 2D6 (P10635 whole entry): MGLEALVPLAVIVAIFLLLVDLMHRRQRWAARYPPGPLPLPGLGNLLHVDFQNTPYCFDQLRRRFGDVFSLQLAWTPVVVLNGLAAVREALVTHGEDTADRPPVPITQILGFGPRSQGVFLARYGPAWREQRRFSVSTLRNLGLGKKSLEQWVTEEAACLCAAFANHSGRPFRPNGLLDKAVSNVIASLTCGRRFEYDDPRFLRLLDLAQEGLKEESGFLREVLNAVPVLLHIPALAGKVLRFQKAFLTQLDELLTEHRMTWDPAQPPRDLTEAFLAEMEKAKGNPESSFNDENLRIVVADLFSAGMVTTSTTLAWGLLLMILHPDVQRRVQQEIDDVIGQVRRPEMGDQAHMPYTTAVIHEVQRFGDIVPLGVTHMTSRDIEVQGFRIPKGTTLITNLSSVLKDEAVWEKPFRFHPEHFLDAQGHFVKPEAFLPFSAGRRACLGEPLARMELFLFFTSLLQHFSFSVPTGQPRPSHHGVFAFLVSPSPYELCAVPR

Compound | pKi [1] | pIC50 [2] | Activity [3] | pIC50 [1]
O=C1O[C@]2(CN3CCC2CC3)CN1c1ccc2c(c1)OCO2 | 7.43 | < 4.52 | Agonist | 
O=C1O[C@]2(CN3CCC2CC3)CN1c1ccc2c(c1)OCC2 | 6.39 |  |  | 
Cn1c(=O)sc2cc(N3CC4(CN5CCC4CC5)OC3=O)ccc21 (single isomer, unassigned) |  |  |  | < 6.00
CCc1coc2ccc(N3C[C@@]4(CN5CCC4CC5)OC3=O)cc12 | 8.10 | 4.68 |  | 
O=C1O[C@]2(CN3CCC2CC3)CN1c1ccc2occc2c1 | 7.72 | < 4.52 | Agonist | 
Cc1cc2cc(N3C[C@@]4(CN5CCC4CC5)OC3=O)ccc2o1 | 7.42 | < 4.52 |  | 
Cn1c(=O)oc2cc(N3CC4(CN5CCC4CC5)OC3=O)ccc21 (single isomer, unassigned) |  |  |  | < 6.00
O=C1O[C@]2(CN3CCC2CC3)CN1c1ccc2c(c1)CCO2 | 7.07 |  |  | 
Cc1oc2ccc(N3C[C@@]4(CN5CCC4CC5)OC3=O)cc2c1Br | 7.96 |  |  | 
O=C1O[C@@]2(CN3CCC2CC3)CN1c1ccc2occ(Br)c2c1 | 8.40 | < 4.52 |  | 
O=C1O[C@]2(CN3CCC2CC3)CN1c1ccc2c(c1)OCCO2 | 6.76 |  |  | 
O=C1NCC2(CN3CCC2CC3)O1 (single isomer, unassigned) |  |  | Agonist | 
O=C1O[C@]2(CN3CCC2CC3)CN1c1ccc2sccc2c1 | 7.55 | < 4.52 |  | 
